Experimental data taken from the supplement of paper PMC10307832.

Legend:
Assay in all cases: relative viability (nuclei count vs DMSO), 5 days (fraction); higher = more cells survive
[1] = test system: HCC-366
Summary of the method: (§1)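 Dosing by pin tool came one day after lung cancer cell lines were seeded in 1536-well plates, using either one drug or a fixed anchor-drug dose plus five library-drug doses (not always all listed) in √10 steps. After 5 days, nuclei were counted on 4× images. Relative viability is treated-well nuclei count divided by vehicle-well nuclei count, and values are medians of duplicate plates.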

[2] = test system: HCC-44
Summary of the method: as §1

[3] = test system: NCI-H1437
Summary of the method: as §1

[4] = test system: NCI-H3122
Summary of the method: as §1

[5] = test system: EBC-1
Summary of the method: as §1

[6] = test system: NCI-H2085
Summary of the method: as §1

[7] = test system: NCI-H1299
Summary of the method: as §1

[8] = test system: LOU-NH91
Summary of the method: as §1

[9] = test system: A549
Summary of the method: as §1

[10] = test system: NCI-H1703
Summary of the method: as §1

[11] = test system: IA-LM
Summary of the method: as §1

[12] = test system: Calu-6
Summary of the method: as §1

## COc1nc(C)cnc1NS(=O)(=O)c1cccnc1-c1ccc(-c2nnco2)cc1 [Zibotentan] + CC1(C)CCC(c2ccc(Cl)cc2)=C(CN2CCN(c3ccc(C(=O)NS(=O)(=O)c4ccc(N[C@H](CCN5CCOCC5)CSc5ccccc5)c(S(=O)(=O)C(F)(F)F)c4)cc3)CC2)C1 [Navitoclax] (partner 0.5 µM)
[1]; first compound 0.08 µM
  relative viability: 1.12
[1]; first compound 0.253 µM
  relative viability: 1.14
[1]; first compound 0.8 µM
  relative viability: 1.15
[1]; first compound 2.53 µM
  relative viability: 1.06
[2]; first compound 0.08 µM
  relative viability: 1.24
[2]; first compound 0.253 µM
  relative viability: 0.887
[2]; first compound 0.8 µM
  relative viability: 0.99
[2]; first compound 2.53 µM
  relative viability: 1.04
[3]; first compound 0.08 µM
  relative viability: 1.12
[3]; first compound 0.253 µM
  relative viability: 1.04
[3]; first compound 0.8 µM
  relative viability: 1.07
[3]; first compound 2.53 µM
  relative viability: 1.17
[4]; first compound 0.08 µM
  relative viability: 1.04
[4]; first compound 0.253 µM
  relative viability: 1.01
[4]; first compound 0.8 µM
  relative viability: 1.04
[4]; first compound 2.53 µM
  relative viability: 1.06
[5]; first compound 0.08 µM
  relative viability: 0.487
[5]; first compound 0.253 µM
  relative viability: 0.499
[5]; first compound 0.8 µM
  relative viability: 0.477
[5]; first compound 2.53 µM
  relative viability: 0.38
[6]; first compound 0.08 µM
  relative viability: 1.23
[6]; first compound 0.253 µM
  relative viability: 1.08
[6]; first compound 0.8 µM
  relative viability: 1.28
[6]; first compound 2.53 µM
  relative viability: 1.27
[7]; first compound 0.08 µM
  relative viability: 1.05
[7]; first compound 0.253 µM
  relative viability: 0.998
[7]; first compound 0.8 µM
  relative viability: 1.05
[7]; first compound 2.53 µM
  relative viability: 1.05
[8]; first compound 0.08 µM
  relative viability: 0.693
[8]; first compound 0.253 µM
  relative viability: 0.635
[8]; first compound 0.8 µM
  relative viability: 0.812
[8]; first compound 2.53 µM
  relative viability: 0.66
[9]; first compound 0.08 µM
  relative viability: 1.45
[9]; first compound 0.253 µM
  relative viability: 1.18
[9]; first compound 0.8 µM
  relative viability: 1.26
[9]; first compound 2.53 µM
  relative viability: 1.2
[10]; first compound 0.08 µM
  relative viability: 1.15
[10]; first compound 0.253 µM
  relative viability: 1.08
[10]; first compound 0.8 µM
  relative viability: 1.25
[10]; first compound 2.53 µM
  relative viability: 1.03
[11]; first compound 0.08 µM
  relative viability: 0.764
[11]; first compound 0.253 µM
  relative viability: 0.688
[11]; first compound 0.8 µM
  relative viability: 0.682
[11]; first compound 2.53 µM
  relative viability: 0.699
[12]; first compound 0.08 µM
  relative viability: 0.832
[12]; first compound 0.253 µM
  relative viability: 0.79
[12]; first compound 0.8 µM
  relative viability: 0.888
[12]; first compound 2.53 µM
  relative viability: 0.894

## COc1nc(C)cnc1NS(=O)(=O)c1cccnc1-c1ccc(-c2nnco2)cc1 [Zibotentan] + CS(=O)(=O)CCNCc1ccc(-c2ccc3ncnc(Nc4ccc(OCc5cccc(F)c5)c(Cl)c4)c3c2)o1 [Lapatinib] (partner 2 µM)
[1]; first compound 0.08 µM
  relative viability: 1.17
[1]; first compound 0.253 µM
  relative viability: 0.955
[1]; first compound 0.8 µM
  relative viability: 0.653
[1]; first compound 2.53 µM
  relative viability: 1.02
[2]; first compound 0.08 µM
  relative viability: 1.02
[2]; first compound 0.253 µM
  relative viability: 1.01
[2]; first compound 0.8 µM
  relative viability: 1.08
[2]; first compound 2.53 µM
  relative viability: 1.04
[3]; first compound 0.08 µM
  relative viability: 0.73
[3]; first compound 0.253 µM
  relative viability: 0.557
[3]; first compound 0.8 µM
  relative viability: 0.804
[3]; first compound 2.53 µM
  relative viability: 0.827
[4]; first compound 0.08 µM
  relative viability: 0.99
[4]; first compound 0.253 µM
  relative viability: 1.03
[4]; first compound 0.8 µM
  relative viability: 1.03
[4]; first compound 2.53 µM
  relative viability: 1.01
[5]; first compound 0.08 µM
  relative viability: 0.235
[5]; first compound 0.253 µM
  relative viability: 0.222
[5]; first compound 0.8 µM
  relative viability: 0.222
[5]; first compound 2.53 µM
  relative viability: 0.2
[6]; first compound 0.08 µM
  relative viability: 0.796
[6]; first compound 0.253 µM
  relative viability: 0.837
[6]; first compound 0.8 µM
  relative viability: 0.764
[6]; first compound 2.53 µM
  relative viability: 0.95
[7]; first compound 0.08 µM
  relative viability: 0.989
[7]; first compound 0.253 µM
  relative viability: 0.906
[7]; first compound 0.8 µM
  relative viability: 0.959
[7]; first compound 2.53 µM
  relative viability: 0.928
[8]; first compound 0.08 µM
  relative viability: 0.835
[8]; first compound 0.253 µM
  relative viability: 0.662
[8]; first compound 0.8 µM
  relative viability: 0.771
[8]; first compound 2.53 µM
  relative viability: 0.782
[9]; first compound 0.08 µM
  relative viability: 1.03
[9]; first compound 0.253 µM
  relative viability: 1.01
[9]; first compound 0.8 µM
  relative viability: 1.05
[9]; first compound 2.53 µM
  relative viability: 1.12
[10]; first compound 0.08 µM
  relative viability: 0.968
[10]; first compound 0.253 µM
  relative viability: 0.894
[10]; first compound 0.8 µM
  relative viability: 1.24
[10]; first compound 2.53 µM
  relative viability: 0.511
[11]; first compound 0.08 µM
  relative viability: 0.68
[11]; first compound 0.253 µM
  relative viability: 0.808
[11]; first compound 0.8 µM
  relative viability: 0.9
[11]; first compound 2.53 µM
  relative viability: 0.847
[12]; first compound 0.08 µM
  relative viability: 1.02
[12]; first compound 0.253 µM
  relative viability: 1.06
[12]; first compound 0.8 µM
  relative viability: 1.16
[12]; first compound 2.53 µM
  relative viability: 1.14

## COc1nc(C)cnc1NS(=O)(=O)c1cccnc1-c1ccc(-c2nnco2)cc1 [Zibotentan] + CS(=O)(=O)N1CCN(Cc2cc3nc(-c4cccc5[nH]ncc45)nc(N4CCOCC4)c3s2)CC1 [Pictilisib] (partner 1 µM)
[1]; first compound 0.08 µM
  relative viability: 0.145
[1]; first compound 0.253 µM
  relative viability: 0.156
[1]; first compound 0.8 µM
  relative viability: 0.141
[1]; first compound 2.53 µM
  relative viability: 0.148
[2]; first compound 0.08 µM
  relative viability: 0.591
[2]; first compound 0.253 µM
  relative viability: 0.625
[2]; first compound 0.8 µM
  relative viability: 0.607
[2]; first compound 2.53 µM
  relative viability: 0.784
[3]; first compound 0.08 µM
  relative viability: 0.462
[3]; first compound 0.253 µM
  relative viability: 0.334
[3]; first compound 0.8 µM
  relative viability: 0.366
[3]; first compound 2.53 µM
  relative viability: 0.582
[4]; first compound 0.08 µM
  relative viability: 0.568
[4]; first compound 0.253 µM
  relative viability: 0.519
[4]; first compound 0.8 µM
  relative viability: 0.576
[4]; first compound 2.53 µM
  relative viability: 0.539
[5]; first compound 0.08 µM
  relative viability: 0.369
[5]; first compound 0.253 µM
  relative viability: 0.435
[5]; first compound 0.8 µM
  relative viability: 0.486
[5]; first compound 2.53 µM
  relative viability: 0.389
[6]; first compound 0.08 µM
  relative viability: 0.477
[6]; first compound 0.253 µM
  relative viability: 0.495
[6]; first compound 0.8 µM
  relative viability: 0.477
[6]; first compound 2.53 µM
  relative viability: 0.517
[7]; first compound 0.08 µM
  relative viability: 0.911
[7]; first compound 0.253 µM
  relative viability: 0.777
[7]; first compound 0.8 µM
  relative viability: 0.773
[7]; first compound 2.53 µM
  relative viability: 0.661
[8]; first compound 0.08 µM
  relative viability: 0.497
[8]; first compound 0.253 µM
  relative viability: 0.468
[8]; first compound 0.8 µM
  relative viability: 0.515
[8]; first compound 2.53 µM
  relative viability: 0.54
[9]; first compound 0.08 µM
  relative viability: 0.478
[9]; first compound 0.253 µM
  relative viability: 0.388
[9]; first compound 0.8 µM
  relative viability: 0.57
[9]; first compound 2.53 µM
  relative viability: 0.519
[10]; first compound 0.08 µM
  relative viability: 0.232
[10]; first compound 0.253 µM
  relative viability: 0.272
[10]; first compound 0.8 µM
  relative viability: 0.26
[10]; first compound 2.53 µM
  relative viability: 0.252
[11]; first compound 0.253 µM
  relative viability: 0.312
[11]; first compound 0.8 µM
  relative viability: 0.328
[11]; first compound 2.53 µM
  relative viability: 0.301
[12]; first compound 0.08 µM
  relative viability: 0.868
[12]; first compound 0.253 µM
  relative viability: 0.83
[12]; first compound 0.8 µM
  relative viability: 0.881
[12]; first compound 2.53 µM
  relative viability: 1.03
